# Columns and labels:
# [1] = Plasma PK from sparse data, population PK analysis without PK modeling; assay type: in vivo, human; conditions: 28 days
# Method: A total of 21 patients in Part A were included in PKAS. […] The mean T1/2 of M1 ranged from 19.8 h to 21.8 h. For M2-2, its mean T1/2 was not able to estimate in the 450 mg QD and 600 mg QD cohorts, and 21.3 h in the 300 mg QD cohort. The MP ratio calculated based on AUCtau ranged from 6.0 to 9.1 for M1, and ranged from 4.1 to 5.7 for M2-2.
# [2] = Chinese patients with advanced NSCLC, even at 800 mg QD; cited from earlier work
smiles,measurement,setting,value
O=C(Nc1ccc(Oc2ccnc3c2CCN3)c(F)c1)c1c[nH]cc(-c2ccc(F)cc2)c1=O,"AUCtau, mean (SD)",[1]; 300 mg QD (n=4),7420.0 (3120.0) h×ng/mL
same,"CLss/F, mean (SD)",[1]; 300 mg QD (n=4),46.2 (18.7) L/h
same,"Cmax,ss, mean (SD)",[1]; 300 mg QD (n=4),601.0 (189.0) ng/mL
same,"Cmin,ss, mean (SD)",[1]; 300 mg QD (n=4),89.1 (56.3) ng/mL
same,"Ctrough, mean (SD)",[1]; 300 mg QD (n=4),94.1 (79.0) ng/mL
same,"T1/2, mean (SD)",[1]; 300 mg QD (n=4),9.1 (1.7) h
same,"Tmax,ss, mean (SD)",[1]; 300 mg QD (n=4),4.0 (2.0) h
same,"Vz,ss/F, mean (SD)",[1]; 300 mg QD (n=4),685.0 (196.0) L
same,"AUCtau, mean (SD)",[1]; 450 mg QD (n=5),6350.0 (2710.0) h×ng/mL
same,"CLss/F, mean (SD)",[1]; 450 mg QD (n=5),77.9 (33.2) L/h
same,"Cmax,ss, mean (SD)",[1]; 450 mg QD (n=5),470.0 (83.3) ng/mL
same,"Cmin,ss, mean (SD)",[1]; 450 mg QD (n=5),151.0 (77.5) ng/mL
same,"Ctrough, mean (SD)",[1]; 450 mg QD (n=5),167.0 (100.5) ng/mL
same,"T1/2, mean (SD)",[1]; 450 mg QD (n=5),10.3 (NE) h
same,"Tmax,ss, mean (SD)",[1]; 450 mg QD (n=5),5.1 (2.0) h
same,"Vz,ss/F, mean (SD)",[1]; 450 mg QD (n=5),1500.0 (NE) L
same,"AUCtau, mean (SD)",[1]; 600 mg QD (n=2),6980.0 (NE) h×ng/mL
same,"CLss/F, mean (SD)",[1]; 600 mg QD (n=2),86.0 (NE) L/h
same,"Cmax,ss, mean (SD)",[1]; 600 mg QD (n=2),758.0 (NE) ng/mL
same,"Cmin,ss, mean (SD)",[1]; 600 mg QD (n=2),80.3 (NE) ng/mL
same,"Ctrough, mean (SD)",[1]; 600 mg QD (n=2),201.1 (166.4) ng/mL
same,"T1/2, mean (SD)",[1]; 600 mg QD (n=2),9.6 (NE) h
same,"Tmax,ss, mean (SD)",[1]; 600 mg QD (n=2),3.0 (NE) h
same,"Vz,ss/F, mean (SD)",[1]; 600 mg QD (n=2),1180.0 (NE) L
same,dose-limiting toxicity (DLT),[2],No dose-limiting toxicity (DLT) occurred
